Experimental data as given in US20220347188A1, “PROMOTING TISSUE REGENERATION” (FRIEDRICH MIESCHER INSITUTE FOR BIOMEDICAL RESEARCH, priority 2019, published 2022).

Tested on: intestinal organoids
Assay: intestinal organoids cultured from single cells, image-based phenotypic assay
Assay type: cell-based
From the text: The present inventors developed a novel image-based phenotypic screening platform in intestinal organoids cultured from single cells to generate a toolbox of compounds shaping the intestinal organoid phenotypic landscape. The compounds were used to infer functional genetic interactions and identify pathways impacting different steps of organoid development. The inventors focused on compounds that improve the regeneration potential of the intestinal epithelium and discovered a novel role for nuclear retinoic acid receptors during organoid damage response and homeostasis both in vitro and in vivo.
FIG. 1 RXR activity is indispensable for symmetry breaking and cell type balance maintenance Representative images of organoids cultured from single cells in indicated treatment conditions (left), composite maximum intensity projections of confocal z-stacks, nuclei, DAPI, antibody staining for Lysozyme and Aldolase B, scale bar, 50 μm. Violin plots showing distribution of mean Aldolase B staining intensity in control and treated organoids (top right). Box plots inside violin plots show quartile range, whiskers show value interval with excluded outliers, white dots indicate median values, n, number of individual organoids in respective conditions. DMSO, DMSO control, RXRi, 5 μM RXR antagonist. […]

CC1=C(/C=C/C(C)=C/C=C/C(C)=C/C(=O)O)C(C)(C)CCC1 [atRA, all-trans retinoic acid]
ALDH1A1-positive as well as RARE-positive region (ALDH1A1 antibody staining and RARE reporter gene): expansion
absorptive enterocytes in organoids (organoids cultured in presence of an RXR agonist and atRA): increase in absorptive enterocytes
